Measured values reported in patent US6881414B2, “Mild cosmetic composition with stabilized retinoids” (Unilever Home & Personal Care USA, division of Conopco, Inc., priority 2000, dated 2005).
Values belong to the compound of their own block, whether it stands above or below them.

What was measured:
LRAT = biological target: T1, LRAT (Bos taurus, UniProt Q9BGL2); assay: LRAT activity assay, RPE microsomes (to identify B1); format: biochemical, bovine; conditions: for % Inhibition LRAT (10 μm): compound 10 μm; for % Inhibition LRAT (100 μm): compound 100 μm
T1 construct: followed by approximately 15 μg of RPE microsomal protein; tissue W. L. Lawson Co; host or cells: bovine retinal pigment epithelium microsomes
T1 sequence (Q9BGL2 1-230): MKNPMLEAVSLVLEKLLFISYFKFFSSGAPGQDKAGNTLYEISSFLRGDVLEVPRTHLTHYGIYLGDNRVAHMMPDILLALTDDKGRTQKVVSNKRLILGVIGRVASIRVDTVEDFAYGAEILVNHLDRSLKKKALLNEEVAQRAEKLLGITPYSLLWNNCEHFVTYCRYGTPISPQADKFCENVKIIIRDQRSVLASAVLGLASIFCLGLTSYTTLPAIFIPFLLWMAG

CRABPII = biological target: T2, CRABPII (Homo sapiens, UniProt P29373); assay: CRABPII antagonist radioactive binding assay (to identify B4); conditions: competition with radioactive all trans retinoic acid; ligand excess ratio not given
T2 construct: made in house; host or cells: E. coli BLR(DE3)pLysS
T2 sequence (P29373 1-138): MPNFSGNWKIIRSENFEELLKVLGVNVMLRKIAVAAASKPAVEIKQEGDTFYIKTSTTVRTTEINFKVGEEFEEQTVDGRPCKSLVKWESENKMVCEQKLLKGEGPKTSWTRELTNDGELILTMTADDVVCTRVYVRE
From the text: 2.6 Assay for CRABPII Antagonists (To Identify B4)
2.6.1. Synthesis of CRABPII
The gene CRABPII was cloned in pET 29a-c(+) plasmid (Novagen). The cloned gene was under control of strong bacteriophage T7 transcription and translation signals. The source of T7 polymerase was provided by the host cell E.coli BLR(DE3)pLysS (Novagen). The latter has a chromosomal copy of T7 polymerase under lacUV5 control, induced by the presence of IPTG.
The plasmid was transferred into E. coli BLR(DE3)pLysS cells by transformation according to the manufacturer protocol (Novagen).
An overnight culture of the transformed cells was diluted 1:100 into 2×YT containing 50 μg/mL kanamycin and 25 μg/mL chloramphenicol. The cells grew while shaking at 37° C. until the OD at 600 nm reached 0.6-0.8. Then IPTG was added to a final concentration of 1 mM and the culture was incubated for an additional two hours. The cells were harvested by centrifugation at 5000 g for 10 minutes at room temperature. The pellet was stored at −20° C.
Purification was performed according to the method described in A. W. Norris & E. Li, Generation and characterization of cellular retinoic acid-binding proteins from Escherichia coli expression systems”. Methods Enzymol. 282:3-13 (1997).
The frozen pellet was thawed at RT and resuspended in 1-2 pellet volumes of freshly prepared lysis buffer (50 mM Tris-HCl, pH 8, 10% (w/v) sucrose, 1 mM EDTA, 0.05% (w/v) sodium azide, 0.5 mM DTT, 10 mM MnCl2, 2.5 mM phenylmethylsulfonyl fluoride, 2.5 mM benzamidine, 6 μg/mL DNase). The lysate was incubated for 30 min at room temperature. Further lysis was accomplished by sonication (six 30-sec bursts at […] alternated with five 30-sec delay on ice). […]
The supernatant from step a. was loaded onto a 2.5×100 cm column of sephacryl S-300 (Pharmacia) at room temperature. […] Collected 2-mL fractions were checked for ultraviolet absorbance at 280 nm. […]
For the competitive assay, another ligand in excess (6670:1, 670:1 or 70:1) was added to the mix. […] The radioactivity of the filtrate was measured by scintillation counter.

TGase I in keratinocytes = assay: Transglutaminase (TGase I) ELISA assay in cultured keratinocytes; format: cell-based; conditions: added effect of booster+retinol induced TGase inhibition over retinol alone
[1] = Retinoid solubility in oil (UV spectroscopy of filtrate); format: physicochemical
Method: As an illustration, solubility of retinol crystals in varying oils is as follows:
Retinoid solubility in oil is determined by the following procedure. A known weight of pure retinoid in excess of the expected solubility limit in the oil is added in an oil. Methanol is added to the mixture to dissolve all retinoid crystals. Nitrogen sparging is used to ensure all methanol was evaporated from the oil. Retinoid is allowed to recrystallize overnight. The sample is filtered through a 0.45 micron filter. Known dilutions of the filtrate in isopropanol are measured by UV spectroscopy at an appropriate wavelength (325 nm for retinol) and the concentration of retinoid determined against calibration standards of retinoid in isopropanol.

- % Inhibition LRAT (10 μm) (LRAT): 10% +/− 7
SMILES: CC(C)=CCCC(C)=CCCC(C)=CCO [Farnesol]

- % Inhibition LRAT (100 μm) (LRAT): 0%
SMILES: C=CC(C)(O)CCC=C(C)C (centres unmarked) [Linatool]

- % Inhibition LRAT (100 μm) (LRAT): 14%
SMILES: O=C1C[C@@H](c2ccc(O)cc2)Oc2cc(O)cc(O)c21 [Naringenin]

- % Inhibition CRABPII (CRABPII): >50%
SMILES: CCCCCCCC/C=C/CCCCCCCC(=O)O [Elaidic Acid]

- % Inhibition LRAT (10 μm) (LRAT): 16% +/− 9
SMILES: CC(C)=CCC/C(C)=C/CC/C(C)=C/CC/C(C)=C/CO [Geranyl Geraniol]

- % Inhibition Overall TG (- ROH/RE) (TGase I in keratinocytes): 22%
SMILES: CN1CCN(C)C1=O [Dimethyl Imidazolidinone]

- % Inhibition Overall TG (- ROH/RE) (TGase I in keratinocytes): 59%
SMILES: CCCCC/C=C\C/C=C\CCCCCCCC(=O)N(CCO)CCO [Linoleamide-DEA, Linoleoyl Diethanolamide]

- % Inhibition LRAT (10 μm) (LRAT): 0%
SMILES: CC(/C=C/C=C(\C)C(=O)O)=C\C=C\C=C(C)\C=C\C=C(/C)C(=O)O [Crocetin]

- % Inhibition CRABPII (CRABPII): >50%
SMILES: O=C(O)CCCCCCCCCCCCCCC(=O)O [Hexadecanedioic Acid]

- Solubility of retinol crystals in oil ([1]; in C12-15 Alkyl benzoate): 85 wt %
- Solubility of retinol crystals in oil ([1]; in Cetiol OE): 80 wt %
- Solubility of retinol crystals in oil ([1]; in Cyclomethicone): 2.7 wt %
- Solubility of retinol crystals in oil ([1]; in Dimethicone): 0.49 wt %
- Solubility of retinol crystals in oil ([1]; in Isostearyl palmitate): 44 wt %
- Solubility of retinol crystals in oil ([1]; in Mineral oil): 34.2 wt %
- Solubility of retinol crystals in oil ([1]; in Triolein/Squalene (6:1)): 56.4 wt %
SMILES: CC1=C(/C=C/C(C)=C/C=C/C(C)=C/CO)C(C)(C)CCC1 [retinol]

- % Inhibition CRABPII (CRABPII): >50%
SMILES: CC(C)CCCCCCCCCCCCCCC(=O)O [Isostearic Acid]
